Patent publication US20250304623A1, “PEPTIDES FOR INTRACELLULAR DELIVERY” (UNIVERSIDADE DE SANTIAGO DE COMPOSTELA, priority 2022, published 2025)
Starred links: 1 amine or outer side, 2 acyl side, 3 side chain; linkers in the order of their positions; H or OH if unused. Residues, ends and D or L forms follow the SMILES beside them. Groups on a side chain read outwards from the residue. *: point of attachment. Glutaryl = O=C(CCCC(=O)[*:2])[*:1]; NHNH2 = NN*

Experiments:
Type in all cases: cell-based
[1] = system: A549 cells expressing EGFP; assay: EGFP-targeting siRNA delivery (GFP silencing vs siMOCK), A549; settings: for percentage of GFP-silencing relative to siMOCK: A549 cells
Description: (§1) To generate an EGFP expressing HeLa cell line, HeLa cells were transfected with EGFP pDNA (pEGFP-C1, Clontech) and stable transfectants were selected with 400 μg/mL of G-418 (Millipore). Green clones were selected by epifluorescence microscopy and tested for EGFP expression stability through several passages. […] All other EGFP-expressing cell lines were obtained in a similar way from parent non-EGFP-expressing cell lines.
(§2) Cells expressing EGFP were seeded in a 96 well plate the day before the experiment at a concentration of 50,000 cell/mL (100 μL/w) in DMEM+10% FBS+1% Gln-Abt. For robotic library screening, the delivery of an EGFP-targeting siRNA (EGFP: enhanced green fluorescent protein, Ambion® Silencer® GFP Positive Control siRNA (siGFP) (AM4626)) in six different cell lines expressing EGFP was performed. […] The mixture was shaken for 30 min at room temperature (rt) before the addition to the cells. The cell medium was aspirated, and cells were washed twice with PBS. Finally, 50 μL of the solution of siRNA/amphiphile complexes were added to the cells and incubated for 4 h. After transfection, the medium was replaced by 100 μL of fresh DMEM supplemented with 10% FBS. The fluorescence knockdown was quantified after 72 h in a plate reader, by comparison with cells transfected with a non-targeting siRNA control (siMOCK, Silencer™ Negative Control No. 1 siRNA (siMOCK) (AM4611)). EGFP knockdown was compared with Lipofectamine® RNAiMAX silencing efficiency (30-60% depending on cell line, defined with a numeric value in the below tables). All experiments were done in triplicate.
(§3) Tables 1-7: RLuc (pDNA) or EGFP (mRNA) expression levels were normalized to Lipofectamine reagents (value=1) and expressed as fold-times signal increase. In the case of siRNA, the siRNA treated cells fluorescence was compared with siMOCK control fluorescence, while Cas9-RNP mediated knockout was measured against the fluorescence of untreated cells. In both siRNA and Cas9-RNP, values are expressed as % fluorescence reduction. Amphiphile concentration was 5 μM in all cases. All experiments were performed in triplicate.
(§4) Tables 20-25 show the mean (triplicates) percentage of GFP-silencing, accounted by fluorescence intensity decrease relative to a non-targeting siRNA (siMOCK) control, measured after the transfection of siRNA by different amphiphiles at different concentrations in a variety of cell lines. Background values, accounted by untreated control cells, were subtracted for processing.

[2] = system: ARPE19 cells expressing EGFP; assay: EGFP-targeting siRNA delivery (GFP silencing vs siMOCK), ARPE19
Description: as §1, §2, §3, §4

[3] = system: Hek293 cells expressing EGFP; assay: EGFP-targeting siRNA delivery (GFP silencing vs siMOCK), Hek293
Description: as §1, §2, §3, §4

[4] = system: A549 cells expressing EGFP; assay: Cas9-RNP delivery against EGFP (gene editing, plate reader), A549; settings: for percentage of gene editing, GFP fluorescence intensity decrease (% of reduction): A549 cells
Description: as §1
Cells expressing EGFP were seeded in a 96 well plate the day before the experiment at a concentration of 50,000 cell/mL (100 μL/w) in DMEM+10% FBS+1% Gln-Abt. For robotic library screening, the delivery of Cas9-RNP against EGFP (RNP designed to knock-out the gene encoding for the enhanced green fluorescent protein (EGFP)) was performed. For RNP assembly, 9.2 μL of crRNA and 9.2 μL of tracrRNA were mixed in 211.6 μL of Nuclease-Free Duplex Buffer (IDT), incubated for 5 min at 95° C. and slowly cooled at rt (see I. Lostalé-Seijo, et al. Peptide/Cas9 nanostructures for ribonucleoprotein cell membrane transport and gene edition, Chem. Sci., 2017). Cas9 protein was dissolved in DMEM at a final concentration of 4 μM and equal volumes of the RNA complex and Cas9 were mixed and incubated for 5 min at rt. 75 μL of the corresponding amphiphile concentrations were added to 5 μL of RNP at 2 μM. The mixture was shaken for 30 min at room temperature before the addition to the cells. The cell medium was aspirated, and cells were washed twice with PBS. Cells were covered with 30 μL of DMEM and 20 μL of the RNP/amphiphile complexes were added to the cells (final peptide concentrations=2.5, 5 and 10 μM; final Cas9-RNP concentration=50 nM) and incubated for 4 h. After the incubation, the medium was replaced by 100 μL of fresh DMEM supplemented with 10% FBS. The total EGFP fluorescence was quantified after 72 h in a plate reader (FIG. 2, Table 1 (right) and Table 6). All experiments were done in triplicate.
as §3
Tables 26-31 show the mean (triplicates) percentage of gene editing, accounted by GFP fluorescence intensity decrease (% of reduction), measured after the transfection of Cas9-RNP by different amphiphiles at different concentrations in a variety of cell lines. Background values, accounted by untreated control cells, were subtracted for processing.

Molecule	percentage of GFP-silencing relative to siMOCK ([1]; Myristoleyl, 10 μM) [%]	percentage of GFP-silencing relative to siMOCK ([1]; Myristoleyl, 15 μM) [%]	percentage of GFP-silencing relative to siMOCK ([1]; Oleyl, 5 μM) [%]	percentage of GFP-silencing relative to siMOCK ([1]; Oleyl, 10 μM) [%]	percentage of GFP-silencing relative to siMOCK ([1]; Oleyl, 15 μM) [%]	percentage of GFP-silencing relative to siMOCK ([1]; Palmitoleyl, 15 μM) [%]	percentage of GFP-silencing relative to siMOCK ([1]; Petroselinyl, 10 μM) [%]	percentage of GFP-silencing relative to siMOCK ([1]; Petroselinyl, 15 μM) [%]	percentage of GFP-silencing relative to siMOCK ([2]; Dodecanal, 5 μM) [%]	percentage of GFP-silencing relative to siMOCK ([2]; Myristoleyl, 10 μM) [%]	percentage of GFP-silencing relative to siMOCK ([2]; Oleyl, 10 μM) [%]	percentage of GFP-silencing relative to siMOCK ([2]; Oleyl, 15 μM) [%]	percentage of GFP-silencing relative to siMOCK ([2]; Palmitoleyl, 10 μM) [%]	percentage of GFP-silencing relative to siMOCK ([2]; Palmitoleyl, 15 μM) [%]	percentage of GFP-silencing relative to siMOCK ([2]; Petroselinyl, 5 μM) [%]	percentage of gene editing, GFP fluorescence intensity decrease (% of reduction) ([4]; Myristoleyl, 5 μM) [%]	percentage of gene editing, GFP fluorescence intensity decrease (% of reduction) ([4]; Myristoleyl, 10 μM) [%]	percentage of gene editing, GFP fluorescence intensity decrease (% of reduction) ([4]; Myristoleyl, 15 μM) [%]	percentage of gene editing, GFP fluorescence intensity decrease (% of reduction) ([4]; Oleyl, 15 μM) [%]	percentage of gene editing, GFP fluorescence intensity decrease (% of reduction) ([4]; Palmitoleyl, 15 μM) [%]	further results
CC(=O)N[C@@H](CCCNC(=N)N)C(=O)N[C@@H](CCCCNC(=O)CCCC(=O)NN)C(=O)N[C@@H](Cc1c[nH]cn1)C(=O)N[C@@H](CCCNC(=N)N)C(=O)N[C@@H](CCCCNC(=O)CCCC(=O)NN)C(=O)N[C@@H](CCCCNC(=O)CCCC(=O)NN)C(=O)N[C@@H](Cc1c[nH]cn1)C(N)=O [7.3(L-H), Ac-RK*HRK*K*H-NH2] (Ac-RK([Glutaryl-NHNH2])HRK([Glutaryl-NHNH2])K([Glutaryl-NHNH2])H-NH2)	22	31	2	14	21	40	20	52	10	45	47	46	65	40	5	60	29	11	9	−6	percentage of GFP-silencing relative to siMOCK ([1]; Myristoleyl, 5 μM): 18%; percentage of GFP-silencing relative to siMOCK ([2]; Myristoleyl, 5 μM): 45%; percentage of GFP-silencing relative to siMOCK ([2]; Oleyl, 5 μM): 15%; percentage of GFP-silencing relative to siMOCK ([2]; Palmitoleyl, 5 μM): 49%; percentage of GFP-silencing relative to siMOCK ([3]; Dodecanal, 15 μM): 14%; percentage of GFP-silencing relative to siMOCK ([3]; Myristoleyl, 5 μM): −3%; percentage of GFP-silencing relative to siMOCK ([3]; Palmitoleyl, 10 μM): 6%; Cas9-RNP % fluorescence reduction ([4]; A549, 5 μM, Myr tail): 60%; Cas9-RNP % fluorescence reduction ([4]; A549, 5 μM, Pal tail): 67%; Cas9-RNP % fluorescence reduction ([4]; A549, 5 μM, Pet tail): 58%; efficiency on GFP silencing (Cas9-RNP delivery) ([4]; A549, myristoleyl, palmitoleyl or petroselinyl aldehydes): 60-70%; percentage of gene editing, GFP fluorescence intensity decrease (% of reduction) ([4]; Dodecanal, 15 μM): −9%; percentage of gene editing, GFP fluorescence intensity decrease (% of reduction) ([4]; Oleyl, 5 μM): 22%; percentage of gene editing, GFP fluorescence intensity decrease (% of reduction) ([4]; Oleyl, 10 μM): 31%; percentage of gene editing, GFP fluorescence intensity decrease (% of reduction) ([4]; Palmitoleyl, 5 μM): 67%; percentage of gene editing, GFP fluorescence intensity decrease (% of reduction) ([4]; Palmitoleyl, 10 μM): 35%; percentage of gene editing, GFP fluorescence intensity decrease (% of reduction) ([4]; Petroselinyl, 5 μM): 59%; percentage of gene editing, GFP fluorescence intensity decrease (% of reduction) ([4]; Petroselinyl, 10 μM): 29%; percentage of gene editing, GFP fluorescence intensity decrease (% of reduction) ([4]; Petroselinyl, 15 μM): 26%
Ac-RHLK*RHK*RRLK*RH-NH2 (Ac-RHLKRHKRRLKRH-NH2; not fully specified (residues 4, 7, 11); printed as Ac-RHLK*RHK*RRLK*RH-NH2; also: linker on K* not given here) [13(3His)]	28	25	22	26	29	28	42	71	16	42	43	41	49	25	13	5	11	43	4	18	siRNA % fluorescence reduction vs siMOCK ([1]; A549, amphiphile 5 μM, hydrophobic tail): 71%; percentage of GFP-silencing relative to siMOCK ([1]; Dodecanal, 10 μM): 10%; percentage of GFP-silencing relative to siMOCK ([1]; Dodecanal, 15 μM): 37%; percentage of GFP-silencing relative to siMOCK ([1]; Palmitoleyl, 10 μM): 36%; percentage of GFP-silencing relative to siMOCK ([2]; Dodecanal, 15 μM): 22%; percentage of GFP-silencing relative to siMOCK ([2]; Myristoleyl, 15 μM): 30%; percentage of GFP-silencing relative to siMOCK ([2]; Petroselinyl, 10 μM): 56%; percentage of GFP-silencing relative to siMOCK ([2]; Petroselinyl, 15 μM): 30%; percentage of GFP-silencing relative to siMOCK ([3]; Dodecanal, 10 μM): −11%; percentage of GFP-silencing relative to siMOCK ([3]; Myristoleyl, 15 μM): 11%; percentage of GFP-silencing relative to siMOCK ([3]; Oleyl, 10 μM): 2%
